{
  "source": "patent US20090018194A1",
  "about": "“Use of antimicrobial agents derived from alliaceous plants for the prevention and control of crop diseases, post-harvest rot and as environmental disinifectant products” (DMC Research Center, S.L., priority 2007, published 2009)",
  "assay_type_in_all_cases": "cell-based",
  "details_in_all_cases": "incl. 6 mm disc",
  "key": {"[1]": {"tested_on": "Penicillium digitatum Supplied by Brogdex SA", "assay": "agar diffusion test, wild phytopathogens isolated from citrus rot"}, "[2]": {"tested_on": "Penicillium sp. (CPC-PT-1)", "assay": "agar diffusion test, wild fungi isolated from crown rot in bananas"}, "[3]": {"tested_on": "Candida parapsilosis CCTM 1038", "assay": "agar diffusion test with impregnated cellulose discs"}, "[4]": {"tested_on": "Penicillium sp. (CPC-PT-3)", "assay": "agar diffusion test, wild fungi isolated from crown rot in bananas"}, "[5]": {"tested_on": "Escherichia coli CECT 515", "assay": "agar diffusion test with impregnated cellulose discs"}},
  "data": [
    {"compound": "CCCS[S+]([O-])CCC", "note": "(stereo not drawn) [PTS, Propyl Propyl Thiosulfinate]", "values": [
      {"measurement": "diameter of the microbial inhibition halo", "setting": "[1]; 30 ppm", "value": 12, "unit": "mm"},
      {"measurement": "diameter of the microbial inhibition halo", "setting": "[1]; 60 ppm", "value": 15, "unit": "mm"},
      {"measurement": "diameter of the microbial inhibition halo", "setting": "[1]; 125 ppm", "value": 20, "unit": "mm"},
      {"measurement": "diameter of the microbial inhibition halo", "setting": "[1]; 250 ppm", "value": 33, "unit": "mm"},
      {"measurement": "diameter of the microbial inhibition halo", "setting": "[1]; 500 ppm", "value": 33, "unit": "mm"},
      {"measurement": "diameter of the microbial inhibition halo", "setting": "[1]; 1000 ppm", "value": 35, "unit": "mm"},
      {"measurement": "diameter of the microbial inhibition halo", "setting": "[2]; 30 ppm", "value": 0, "unit": "mm"},
      {"measurement": "diameter of the microbial inhibition halo", "setting": "[2]; 60 ppm", "value": 0, "unit": "mm"},
      {"measurement": "diameter of the microbial inhibition halo", "setting": "[2]; 125 ppm", "value": 11, "unit": "mm"},
      {"measurement": "diameter of the microbial inhibition halo", "setting": "[2]; 250 ppm", "value": 15, "unit": "mm"},
      {"measurement": "diameter of the microbial inhibition halo", "setting": "[2]; 500 ppm", "value": 18, "unit": "mm"},
      {"measurement": "diameter of the microbial inhibition halo", "setting": "[2]; 1000 ppm", "value": 20, "unit": "mm"},
      {"measurement": "diameter of the microbial inhibition halo", "setting": "[3]; 25 ppm", "value": 0, "unit": "mm"},
      {"measurement": "diameter of the microbial inhibition halo", "setting": "[3]; 50 ppm", "value": 14, "unit": "mm"},
      {"measurement": "diameter of the microbial inhibition halo", "setting": "[3]; 100 ppm", "value": 17, "unit": "mm"},
      {"measurement": "diameter of the microbial inhibition halo", "setting": "[4]; 30 ppm", "value": 0, "unit": "mm"},
      {"measurement": "diameter of the microbial inhibition halo", "setting": "[4]; 60 ppm", "value": 0, "unit": "mm"},
      {"measurement": "diameter of the microbial inhibition halo", "setting": "[4]; 125 ppm", "value": 10, "unit": "mm"},
      {"measurement": "diameter of the microbial inhibition halo", "setting": "[4]; 250 ppm", "value": 13, "unit": "mm"},
      {"measurement": "diameter of the microbial inhibition halo", "setting": "[4]; 500 ppm", "value": 15, "unit": "mm"},
      {"measurement": "diameter of the microbial inhibition halo", "setting": "[4]; 1000 ppm", "value": 17, "unit": "mm"},
      {"measurement": "diameter of the microbial inhibition halo", "setting": "[5]; 25 ppm", "value": 14, "unit": "mm"},
      {"measurement": "diameter of the microbial inhibition halo", "setting": "[5]; 50 ppm", "value": 17, "unit": "mm"},
      {"measurement": "diameter of the microbial inhibition halo", "setting": "[5]; 100 ppm", "value": 21, "unit": "mm"}
    ]}
  ]
}
